# Results from patent US20240067651A1 (Biohaven Therapeutics Ltd., priority 2019, published 2024).
# Tests used:
# [1] = Caco-2 Permeability Assay; format: in vitro ADME, human; conditions: human
# Description: The compounds of the invention may be tested for biological activity as MPO inhibitors by methods known to those skilled in the art. In addition, methods such as, for example, a Caco-2 assay, may be used to test the bioavailability of the compounds of the invention. A description of a Caco-2 permeability assay is as follows:
# • The Caco-2 monolayer is widely used across the pharmaceutical industry as an in vitro model of the human small intestinal mucosa to predict the absorption of orally administered drugs.^1-4 • The Caco-2 cell model mimics processes such as transcellular transport, paracellular transport, and some aspects of efflux and active transport. • Readout: Papp (A→B), Papp (B→A), Efflux ratio, % Recovery • Controls: with and without Pgp inhibitor; Atenolol, Propanolol, Taxel-1
# The Caco-2 cells are cultured to confluency, trypsinized and seeded onto a filter transwell insert at a density of ^˜32,000 cells/well in DMEM cell culture medium. Cells are grown in a humidified atmosphere of 5% CO2 at 37° C. Following an overnight attachment period (24 h after seeding), the cell medium is replaced with fresh medium in both the apical and basolateral compartments every other day. The cell monolayers are used for transport studies 21 days post seeding after measuring the TEER values ([…]). The apical sides and basolateral sides are washed consecutively with HBSS 2.5% (v/v), HEPES (pH 7.4) or HBSS 2.5% (v/v), HEPES 10% (v/v), and Fetal Bovine Serum (pH 7.4) at 37° C. in an incubator under an atmosphere of 5% CO2.
# Donor working solution is prepared by dilution of DMSO stock of test article or positive control with transport media to 10 μM.
# For A→B directional transport, the donor working solution (with test article or positive control, with or without Pgp inhibitor) is added to the apical (A) compartment and the transport media as receiver working solution is added to the basolateral (B) compartment. For B→A directional transport, the donor working solution (with positive control or test article, with or without Pgp inhibitor) is added to the basolateral (B) compartment and transport media as receiver working solution is added to the apical (A) compartment.
# The cells are incubated in a humidified atmosphere of 5% CO2 at 37° C. for 90 minutes.
# At the end of the incubation, samples are taken from both donor and receiver compartments and transferred into 96-well assay plates containing internal standard solution (IS) in each well. After centrifugation, the supernatant solutions are transferred to clean 96 well plates and analyzed by LC-MS/MS. The MS detection is performed using a Sciex API 4000 instrument. Each compound is analyzed by reversed phase HPLC.
# The parameters Papp (apparent permeability) and efflux ratio are calculated as follows:
# Papp=(dQ/dt)×(1/C0)×(1/A)
# Efflux ratio=Papp[B→A]/Papp[A→B]
# where dQ/dt is the permeability rate, C0 is the initial concentration in the donor compartment, and A is the surface area of the cell monolayer (0.33 cm^2). The Papp value is a rate measured in cm/s. Calculated Papp is ranked as low (<[…]), moderate (1-10×10^−6 cm/s), and high (>[…]).
# Comparing the efflux ratios generated in the presence and absence of a Pgp inhibitor identifies whether the test article is a Pgp substrate.
# Recovery is calculated as follows:
# % Recovery=(Total compound mass in donor and receiver compartments at the end of the incubation/Initial compound mass in the donor compartment)×100.
# Plasma Stability = format: in vitro ADME, human
# Protocol: Plasma stability estimates the ability of a compound to remain intact in the blood. For prodrugs that are intended to be hydrolyzed by plasma enzymes a certain level of instability in plasma indicates the compound is probably breaking down to the parent drug. A stability range of 25-75% remaining parent compound after 1 hour in plasma indicates the compound is likely breaking down to the parent drug molecule and a patient will be exposed to this parent molecule.
# Assessment of plasma stability was carried out by individual incubations of drug candidates in fresh human plasma at a concentration of 1 μM for 1 hour at 37° C. After which, the samples were de-proteinized by addition of 2 volumes of acetonitrile containing 0.1% formic acid and internal standard, vortex mixed for 2 minutes and centrifuged at 4,000 rpm for 10 minutes to pellet precipitated protein. The resulting supernatant containing the drug candidates was diluted 5-fold with water containing 0.1% formic acid and submitted to LCMS/MS analysis. All determinations were done in triplicate. Plasma stability was expressed as percent of control remaining.
# See Pelletier et al. ACS Med. Chem. Lett. 2018, 9, 752-756.
# [2] = Stability in Simulated Intestinal Fluid (SIF); format: in vitro ADME; parameters: key: % parent compound remaining relative to 0-minute sample
# Protocol: (§1) Simulated gastric fluid (SGF) and Simulated intestinal fluid (SIF) stability are in vitro metrics indicating the ability of a compound to pass through the gastrointestinal tract […] or completely digested. An undigested or nearly undigested compound will usually survive gut transit long enough to be absorbed into the systemic circulation. Greater than 50% remaining intact compound at 1 hour indicates a relatively stable molecule that will likely be absorbed in the gut.
# (§2) For each test compound, samples at a final concentration of 2 μg/mL are prepared in respective blank simulated gastric fluid with pepsin (pH 1.2) and simulated intestinal fluid with pancreatin (pH 6.8). All samples are incubated at 37° C. on a 150-rpm orbital shaker, and an aliquot is removed at predetermined time points (0 to 60 minutes). Samples are precipitated with three volumes of acetonitrile containing propranolol as internal standard, and centrifuged for 10 min at 2,000 g before LC-MS/MS analysis of the supernatant solutions. Percent parent compound remaining is determined relative to 0-minute incubation samples. If a sufficient number of time points are available, the degradation half-life is calculated based on the natural log of % compound remaining vs. time plot.
# [3] = Stability in Simulated Gastric Fluid (SGF); format: in vitro ADME; parameters: key: % parent compound remaining relative to 0-minute sample
# Protocol: as §1, §2
# [4] = Caco-2, pH 7.4, Caco-2 monolayer
# [5] = % remaining at 1 h in human plasma
# [6] = % remaining at 1 h in simulated intestinal fluid
# [7] = % remaining at 1 h in simulated gastric fluid
# [8] = simulated intestinal fluid, after 1 h
# [9] = simulated gastric fluid, after 1 h
# [10] = Caco-2, pH 7.4, donor 10 μM, 90 minutes, 37° C., direction not given
# [11] = % remaining at 1 h, human plasma, 1 μM, 37° C.
# [12] = bare number, no % and no time given
# [13] = % remaining at 1 h, SIF with pancreatin pH 6.8, 2 μg/mL, 37° C.
# [14] = % remaining at 1 h, SGF with pepsin pH 1.2, 2 μg/mL, 37° C.
smiles,measurement,setting,value
CC(C)OCCn1c(=S)[nH]c(=O)c2c1ccn2COC(=O)CCCCNC(=O)CNC(=O)OC(C)(C)C [Example 13],"Papp at 90 min, 10 µM",[1]; [4],1.88 ×10⁻⁶ cm/s
same,human Plasma stability,Plasma Stability; [5],1% remaining
same,SIF,[2]; [6],94% remaining
same,SGF,[3]; [7],96% remaining
CCCCCCCOC(=O)OCn1ccc2c1c(=O)nc(S)n2CCOC(C)C [Example 219],"Papp at 90 min, 10 µM","[1]; Caco-2, pH 7.4, Caco-2 monolayer, the 17th table",0.847 ×10⁻⁶ cm/s
same,human Plasma stability,"Plasma Stability; % remaining at 1 h in human plasma, the 17th table",21% remaining
same,SIF,"[2]; % remaining at 1 h in simulated intestinal fluid, the 17th table",23% remaining
same,SGF,"[3]; % remaining at 1 h in simulated gastric fluid, the 17th table",98% remaining
CC(C)OCCn1c(=S)[nH]c(=O)c2c1ccn2COC(=O)CCNC(=O)[C@@H](N)Cc1ccc(O)cc1.O=C(O)C(F)(F)F [Example 50],"Papp at 90 min, 10 µM",[1]; [4],0.215 ×10⁻⁶ cm/s
same,human Plasma stability,Plasma Stability; [5],25% remaining
same,SIF,[2]; [6],75% remaining
same,SGF,[3]; [7],99% remaining
"CC(C)OCCn1c(=S)[nH]c(=O)c2c1ccn2COC(=O)[C@H](N)C(C)C [Example 300, trifluoroacetic acid {4-oxo-1-[2-(propan-2-yloxy)ethyl]-2-sulfanylidene-1H,2H,3H,4H,5H-pyrrolo[3,2-d]pyrimidin-5-yl}methyl (2R)-2-amino-3-methylbutanoate]","Papp at 90 min, 10 µM","[1]; Caco-2, pH 7.4",12.9 ×10⁻⁶ cm/s
same,human Plasma stability,Plasma Stability; % remaining @ 1 h,2% @ 1 h
same,SIF,[2]; % remaining @ 1 h,70% @ 1 h
same,SGF,[3]; % remaining @ 1 h,100% @ 1 h
CC(C)OCCn1c(=S)[nH]c(=O)c2c1ccn2COC(=O)CCCCCCCCCCCCCCC(=O)OC(C)C [Example 256],"Papp at 90 min, 10 µM",[1]; [4],0.25 ×10⁻⁶ cm/s
same,human Plasma stability,"Plasma Stability; human plasma, after 1 h",88% remaining
same,SIF,[2]; [8],9% remaining
same,SGF,[3]; [9],99% remaining
CC(C)OCCn1c(=S)[nH]c(=O)c2c1ccn2COC(=O)CCNC(=O)[C@@H](N)CO.O=C(O)C(F)(F)F [Example 44],"Papp at 90 min, 10 µM",[1]; [4],< 0.222 ×10⁻⁶ cm/s
same,human Plasma stability,Plasma Stability; [5],5% remaining
same,SIF,[2]; [6],1% remaining
same,SGF,[3]; [7],96% remaining
CC(C)OCCn1c(SCOC(=O)C(C)(C)C)nc(=O)c2c1ccn2COC(=O)C(C)(C)C [Example 144],"Papp at 90 min, 10 µM",[1]; [4],5.11 ×10⁻⁶ cm/s
CC(C)OCCn1c(=S)[nH]c(=O)c2c1ccn2COC(=O)CCCCNC(=O)[C@@H](NC(=O)OC(C)(C)C)[C@@H](C)O.O=C(O)C(F)(F)F [Example 35],"Papp at 90 min, 10 µM",[1]; [4],1.91 ×10⁻⁶ cm/s
same,human Plasma stability,Plasma Stability; [5],30% remaining
same,SIF,[2]; [6],99% remaining
same,SGF,[3]; [7],91% remaining
CC(C)OCCn1c(SCOC(=O)OC(C)C)nc(=O)c2[nH]ccc21 [Example 203],"Papp at 90 min, 10 µM","[1]; Caco-2, pH 7.4, Caco-2 monolayer, the 15th table",13.4 ×10⁻⁶ cm/s
same,human Plasma stability,"Plasma Stability; % remaining at 1 h in human plasma, the 15th table",1% remaining
same,SIF,"[2]; % remaining at 1 h in simulated intestinal fluid, the 15th table",63% remaining
same,SGF,"[3]; % remaining at 1 h in simulated gastric fluid, the 15th table",99% remaining
CC(C)OCCn1c(=S)[nH]c(=O)c2c1ccn2COC(=O)CCCCNC(=O)[C@@H]1CCC(=O)N1C.O=C(O)C(F)(F)F [Example 63],"Papp at 90 min, 10 µM",[1]; [4],0.2 ×10⁻⁶ cm/s
same,human Plasma stability,Plasma Stability; [5],0% remaining
same,SIF,[2]; [6],98% remaining
same,SGF,[3]; [7],97% remaining
"COCCOCCC(=O)OCn1ccc2c1c(=O)[nH]c(=S)n2CCOC(C)C [Example 93, {4-oxo-1-[2-(propan-2-yloxy)ethyl]-2-sulfanylidene-1H,2H,3H,4H,5H-pyrrolo[3,2-d]pyrimidin-5-yl}methyl 3-(2-methoxyethoxy)propanoate]","Papp at 90 min, 10 µM",[1]; [10],16.8 ×10⁻⁶ cm/s
same,human Plasma stability,Plasma Stability; [11],0% remaining
same,SIF,[2]; [12],38
same,SGF,[3]; [12],99
CC(C)OCCn1c(=S)[nH]c(=O)c2c1ccn2COC(=O)CCCCCCCCCCC(=O)O [Example 261],"Papp at 90 min, 10 µM",[1]; [4],11.7 ×10⁻⁶ cm/s
same,human Plasma stability,"Plasma Stability; human plasma, after 1 h",94% remaining
same,SIF,[2]; [8],2% remaining
same,SGF,[3]; [9],99% remaining
"CC(C)OCCn1c(=S)[nH]c(=O)c2c1ccn2COC(=O)C[C@H](NC(=O)CCCCCCCCCCC(=O)O)C(=O)O [Example 142, 11-{[(1S)-1-carboxy-3-oxo-3-({4-oxo-1-[2-(propan-2-yloxy)ethyl]-2-sulfanylidene-1H,2H,3H,4H,5H-pyrrolo[3,2-d]pyrimidin-5-yl}methoxy)propyl]carbamoyl}undecanoic acid]","Papp at 90 min, 10 µM",[1]; [10],< 0.19 ×10⁻⁶ cm/s
same,human Plasma stability,Plasma Stability; [11],97% remaining
same,SIF,[2]; [13],97% remaining
same,SGF,[3]; [14],100% remaining
CC(C)OCCn1c(=S)[nH]c(=O)c2c1ccn2COC(=O)C1CN(C(=O)OC(C)(C)C)C1 [Example 127],"Papp at 90 min, 10 µM",[1]; [4],7.79 ×10⁻⁶ cm/s
same,human Plasma stability,Plasma Stability; [5],1% remaining
same,SIF,[2]; [6],6% remaining
same,SGF,[3]; [7],80% remaining
"CC(C)OCCn1c(=S)[nH]c(=O)c2c1ccn2COC(=O)[C@H](Cc1ccccc1)NC(=O)OC(C)(C)C [Example 302, {4-oxo-1-[2-(propan-2-yloxy)ethyl]-2-sulfanylidene-1H,2H,3H,4H,5H-pyrrolo[3,2-d]pyrimidin-5-yl}methyl (2S)-2-{[(tert-butoxy)carbonyl]amino}-3-phenylpropanoate]","Papp at 90 min, 10 µM","[1]; Caco-2, pH 7.4",4.48 ×10⁻⁶ cm/s
same,human Plasma stability,Plasma Stability; % remaining @ 1 h,67% @ 1 h
same,SIF,[2]; % remaining @ 1 h,5% @ 1 h
same,SGF,[3]; % remaining @ 1 h,97% @ 1 h
"CC(C)OCCn1c(=S)[nH]c(=O)c2c1ccn2COC(=O)NCC(F)(F)F [Example 100, {4-oxo-1-[2-(propan-2-yloxy)ethyl]-2-sulfanylidene-1H,2H,3H,4H,5H-pyrrolo[3,2-d]pyrimidin-5-yl}methyl N-(2,2,2-trifluoroethyl)carbamate]","Papp at 90 min, 10 µM","[1]; Caco-2, pH 7.4, no unit printed at the place (tables the 9th table and the 10th table have no head)",27.7 ×10⁻⁶ cm/s
same,human Plasma stability,Plasma Stability; [11],97%
same,SIF,[2]; [13],97%
same,SGF,[3]; [14],99%
CC(C)OCCn1c(SCOC(=O)c2ccccc2)nc(=O)c2c1ccn2COC(=O)c1ccccc1.O=C(O)C(F)(F)F [Example 158],"Papp at 90 min, 10 µM",[1]; [4],5.37 ×10⁻⁶ cm/s
